According to US20040006041A1, “Aqueous fludarabine phosphate composition” (priority 2002, published 2004):

Columns and labels:
Format in all cases: physicochemical
[1] = Effect of pH on formation of related compounds, aqueous composition stored at 40° C. for 1 month followed by one-year storage at 2-8° C.; conditions: 25 mg/mL, 40° C. 1 month then one year 2-8° C.
Procedure: (§1) The effect of the pH of the aqueous fludarabine phosphate composition on the stability of the compositions at elevated temperatures also is shown in Tables 2 and 3. The concentration of fludarabine phosphate in each of the compositions of Tables 2 and 3 was 25 mg/mL.

[2] = Effect of pH on formation of related compounds, aqueous compositions stored at 40° C. for 1 month
Procedure: The effect of the pH of the aqueous fludarabine phosphate composition on the stability of the compositions at elevated temperatures is shown in the following table. The concentration of fludarabine phosphate in each of the compositions of Table 1 was 25 mg/mL.
Its level of “total related compounds” was 0.1%. In contrast, after being stored for 1 months at 40° C., the fludarabine phosphate composition having a pH of 7.7 contained 0.8 of FP-2HA and 1.3% “total related compounds.”

[3] = Effect of pH on formation of related compounds, aqueous composition stored at 27.5° C. for 7 months
Procedure: as §1

[4] = pH 5.5, 25 mg/mL aqueous composition
[5] = pH 6.5, 25 mg/mL aqueous composition
[6] = pH 7.7, 25 mg/mL aqueous composition
[7] = pH 8.1, 25 mg/mL aqueous composition

For Fludarabine phosphate, the “Concentration of FP-2HA, %” value ([1]; pH 6.0) was 0.4%, the “Single Largest Other, %” value ([1]; pH 6.0) was 0.09% and the “Total Related Compounds*, % (excluding fludarabine)” value (shortened to “Total Related Compounds*, %”) ([1]; pH 6.0) was 0.5%. For the same substance, the “Concentration of FP-2HA, %” value ([1]; pH 7.0) was 0.32%, the “Single Largest Other, %” value ([1]; pH 7.0) was 0.1% and the “Total Related Compounds*, %” value ([1]; pH 7.0) was 0.34%. For the same substance, the “Concentration of FP-2HA, %” value ([1]; pH 7.6) was 0.56%, the “Single Largest Other, %” value ([1]; pH 7.6) was 0.2% and the “Total Related Compounds*, %” value ([1]; pH 7.6) was 1.1%. For the same substance, the “Concentration of FP-2HA, %” value ([1]; pH 8.1) was 0.93%, the “Single Largest Other, %” value ([1]; pH 8.1) was 0.4% and the “Total Related Compounds*, %” value ([1]; pH 8.1) was 2.0%. For the same substance, the “Concentration of FP-2HA, %” value [2, 4] was “<LOQ”, the “Total Related Compounds*, %” value [2, 4] was 0.1% and the “Concentration of FP-2HA, %” value [2, 5] was “<LOQ”. The “Total Related Compounds*, %” value [2, 5] was 0.2%, the “Concentration of FP-2HA, %” value [2, 6] was 0.8% and the “Total Related Compounds*, %” value [2, 6] was 1.3%. For the same substance, the “Concentration of FP-2HA, %” value [2, 7] was 1.0%, the “Total Related Compounds*, %” value [2, 7] was 2.2% and the “Concentration of FP-2HA, %” value ([3]; pH 6.8, 25 mg/mL) was 0.33%. For the same substance, the “Single Largest Other, %” value ([3]; pH 6.8, 25 mg/mL) was 0.1%, the “Total Related Compounds*, %” value ([3]; pH 6.8, 25 mg/mL) was 0.43% and the “Concentration of FP-2HA, %” value ([3]; pH 7.2, 25 mg/mL) was 0.54%. For the same substance, the “Single Largest Other, %” value ([3]; pH 7.2, 25 mg/mL) was 0.1% and the “Total Related Compounds*, %” value ([3]; pH 7.2, 25 mg/mL) was 0.94%.
